Source: patent US11590139B2, “Substituted aminopurine compounds, compositions thereof, and methods of treatment therewith” (Signal Pharmaceuticals, LLC, priority 2014, dated 2023)
Where two headings read alike, the source gives them in different places.

System: Lox-IMVI melanoma cell line
Assay: Lox-IMVI anti-proliferative assay (growth inhibition, Cell Titer-Glo)
Assay type: cell-based, human
Conditions: Lox-IMVI melanoma cell line, anti-proliferative assay, read-out: Activity (IC50 activity level)
How it was run: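 Lox-IMVI cells in RPMI+10% FBS exposed 72 h at 37 °C to 10-point, 3-fold dilutions (0.5 nM–10 μM; 0.2% DMSO final), in duplicate. Viability by Cell Titer-Glo luminescence, with a t0 cell-number reading; data as % of DMSO control; IC50 from a four-parameter logistic fit.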

SMILES	IC50 (Homo sapiens)	IC50
C[C@]1(C(N)=O)CC[C@@H](n2c(Nc3c(F)cc(F)cc3F)nc3cnc(N[C@@H]4CC[C@@H](O)C4)nc32)CC1 [Example 634, (1S,4s)-4-(2-((1R,3R)-3-hydroxycyclopentylamino)-8-(2,4,6-trifluorophenylamino)-9H-purin-9-yl)-1-methylcyclohexanecarboxamide]	500 to 1000 nM	–
C[C@]1(C(N)=O)CC[C@@H](n2c(Nc3c(F)cc(F)cc3Cl)nc3cnc(N[C@@H]4CC[C@@H](O)C4)nc32)CC1 [Example 635, (1S,4s)-4-(8-(2-chloro-4,6-difluorophenylamino)-2-((1R,3R)-3-hydroxycyclopentylamino)-9H-purin-9-yl)-1-methylcyclohexanecarboxamide]	250 to 500 nM	–
C[C@]1(C(N)=O)CC[C@@H](n2c(Nc3c(Cl)cc(Cl)cc3Cl)nc3cnc(N[C@@H]4CC[C@@H](O)C4)nc32)CC1 [Example 636, (1S,4s)-4-(2-((1R,3R)-3-hydroxycyclopentylamino)-8-(2,4,6-trichlorophenylamino)-9H-purin-9-yl)-1-methylcyclohexanecarboxamide]	< 250 nM	–
C[C@]1(C(N)=O)CC[C@@H](n2c(Nc3c(F)cc(Cl)cc3Cl)nc3cnc(N[C@@H]4CC[C@@H](O)C4)nc32)CC1 [Example 637, (1S,4s)-4-(8-(2,4-dichloro-6-fluorophenylamino)-2-((1R,3R)-3-hydroxycyclopentylamino)-9H-purin-9-yl)-1-methylcyclohexanecarboxamide]	< 250 nM	–
C[C@]1(C(N)=O)CC[C@@H](n2c(Nc3c(Cl)cc(F)cc3Cl)nc3cnc(N[C@@H]4CC[C@@H](O)C4)nc32)CC1 [Example 638, (1S,4s)-4-(8-(2,6-dichloro-4-fluorophenylamino)-2-((1R,3R)-3-hydroxycyclopentylamino)-9H-purin-9-yl)-1-methylcyclohexanecarboxamide]	< 250 nM	–
C[C@]1(C(N)=O)CC[C@@H](n2c(Nc3c(F)cc(Cl)cc3F)nc3cnc(N[C@@H]4CC[C@@H](O)C4)nc32)CC1 [Example 639, (1S,4s)-4-(8-(4-chloro-2,6-difluorophenylamino)-2-((1R,3R)-3-hydroxycyclopentylamino)-9H-purin-9-yl)-1-methylcyclohexanecarboxamide]	< 250 nM	–
C[C@]1(C(N)=O)CC[C@@H](n2c(Nc3c(F)cc(C#N)cc3Cl)nc3cnc(N[C@@H]4CC[C@@H](O)C4)nc32)CC1 [Example 640, (1S,4s)-4-(8-(2-chloro-4-cyano-6-fluorophenylamino)-2-((1R,3R)-3-hydroxycyclopentylamino)-9H-purin-9-yl)-1-methylcyclohexanecarboxamide]	< 250 nM	–
C[C@]1(C(N)=O)CC[C@@H](n2c(Nc3c(Cl)cc(C#N)cc3Cl)nc3cnc(N[C@@H]4CC[C@@H](O)C4)nc32)CC1 [Example 641, (1S,4s)-4-(8-(2,6-dichloro-4-cyanophenylamino)-2-((1R,3R)-3-hydroxycyclopentylamino)-9H-purin-9-yl)-1-methylcyclohexanecarboxamide]	< 250 nM	–
C[C@]1(C(N)=O)CC[C@@H](n2c(Nc3c(F)cc(C#N)cc3F)nc3cnc(N[C@@H]4CCC[C@@H](O)C4)nc32)CC1 [Example 642, (1S,4s)-4-(8-(4-cyano-2,6-difluorophenylamino)-2-((1R,3R)-3-hydroxycyclohexylamino)-9H-purin-9-yl)-1-methylcyclohexanecarboxamide]	–	> 1000 nM
C[C@]1(C(N)=O)CC[C@@H](n2c(Nc3c(F)cc(F)cc3F)nc3cnc(N[C@H]4CC[C@H](O)C4)nc32)CC1 [Example 643, (1R,4s)-4-(2-((1S,3S)-3-hydroxycyclopentylamino)-8-(2,4,6-trifluorophenylamino)-9H-purin-9-yl)-1-methylcyclohexanecarboxamide]	500 to 1000 nM	–
C[C@]1(C(N)=O)CC[C@@H](n2c(Nc3c(F)cc(F)cc3Cl)nc3cnc(N[C@H]4CC[C@H](O)C4)nc32)CC1 [Example 644, (1R,4s)-4-(8-(2-chloro-4,6-difluorophenylamino)-2-((1S,3S)-3-hydroxycyclopentylamino)-9H-purin-9-yl)-1-methylcyclohexanecarboxamide]	250 to 500 nM	–
C[C@]1(C(N)=O)CC[C@@H](n2c(Nc3c(Cl)cc(Cl)cc3Cl)nc3cnc(N[C@H]4CC[C@H](O)C4)nc32)CC1 [Example 645, (1R,4s)-4-(2-((1S,3S)-3-hydroxycyclopentylamino)-8-(2,4,6-trichlorophenylamino)-9H-purin-9-yl)-1-methylcyclohexanecarboxamide]	500 to 1000 nM	–
C[C@]1(C(N)=O)CC[C@@H](n2c(Nc3c(F)cc(Cl)cc3Cl)nc3cnc(N[C@H]4CC[C@H](O)C4)nc32)CC1 [Example 646, (1R,4s)-4-(8-(2,4-dichloro-6-fluorophenylamino)-2-((1S,3S)-3-hydroxycyclopentylamino)-9H-purin-9-yl)-1-methylcyclohexanecarboxamide]	250 to 500 nM	–
C[C@]1(C(N)=O)CC[C@@H](n2c(Nc3c(Cl)cc(F)cc3Cl)nc3cnc(N[C@H]4CC[C@H](O)C4)nc32)CC1 [Example 647, (1R,4s)-4-(8-(2,6-dichloro-4-fluorophenylamino)-2-((1S,3S)-3-hydroxycyclopentylamino)-9H-purin-9-yl)-1-methylcyclohexanecarboxamide]	500 to 1000 nM	–
C[C@]1(C(N)=O)CC[C@@H](n2c(Nc3c(F)cc(Cl)cc3F)nc3cnc(N[C@H]4CC[C@H](O)C4)nc32)CC1 [Example 648, (1R,4s)-4-(8-(4-chloro-2,6-difluorophenylamino)-2-((1S,3S)-3-hydroxycyclopentylamino)-9H-purin-9-yl)-1-methylcyclohexanecarboxamide]	> 1000 nM	–
C[C@]1(C(N)=O)CC[C@@H](n2c(Nc3c(F)cc(C#N)cc3Cl)nc3cnc(N[C@H]4CC[C@H](O)C4)nc32)CC1 [Example 649, (1R,4s)-4-(8-(2-chloro-4-cyano-6-fluorophenylamino)-2-((1S,3S)-3-hydroxycyclopentylamino)-9H-purin-9-yl)-1-methylcyclohexanecarboxamide]	250 to 500 nM	–
C[C@]1(C(N)=O)CC[C@@H](n2c(Nc3c(Cl)cc(C#N)cc3Cl)nc3cnc(N[C@H]4CC[C@H](O)C4)nc32)CC1 [Example 650, (1R,4s)-4-(8-(2,6-dichloro-4-cyanophenylamino)-2-((1S,3S)-3-hydroxycyclopentylamino)-9H-purin-9-yl)-1-methylcyclohexanecarboxamide]	250 to 500 nM	–
C[C@]1(C(N)=O)CC[C@@H](n2c(Nc3c(F)cc(Cl)cc3Cl)nc3cnc(NC4CC(F)(F)C4)nc32)CC1 [Example 651, (1s,4s)-4-(8-(2,4-dichloro-6-fluorophenylamino)-2-(3,3-difluorocyclobutylamino)-9H-purin-9-yl)-1-methylcyclohexanecarboxamide]	< 250 nM	–
NC(=O)[C@H]1CC[C@@H](n2c(Nc3c(F)cc(F)cc3F)nc3cnc(NC[C@@H]4CCCC[C@@H]4O)nc32)CC1 [Example 652, (1R,4s)-4-(2-(((1S,2S)-2-hydroxycyclohexyl)methylamino)-8-(2,4,6-trifluorophenylamino)-9H-purin-9-yl)cyclohexanecarboxamide]	> 1000 nM	–
NC(=O)[C@H]1CC[C@@H](n2c(Nc3c(F)cc(F)cc3Cl)nc3cnc(NC[C@@H]4CCCC[C@@H]4O)nc32)CC1 [Example 653, (1R,4s)-4-(8-(2-chloro-4,6-difluorophenylamino)-2-(((1S,2S)-2-hydroxycyclohexyl)methylamino)-9H-purin-9-yl)cyclohexanecarboxamide]	> 1000 nM	–
